Results: BigSolDB 2.1

OCC1(O)OC[C@@H](O)[C@H](O)[C@@H]1O (stereo not given in full)
solubility (mole fraction)
Conditions | 283.15 K | 288.15 K | 293.15 K | 298.15 K | 303.15 K | 308.15 K | 313.15 K | 318.15 K | 323.15 K
in ethanol | 0.00138 | 0.00168 | 0.00193 | 0.00219 | 0.00245 | 0.00288 | 0.00328 | 0.00395 | 0.00468
in isopropanol | 0.00038 | 0.00041 | 0.0006 | 0.00088 | 0.00121 | 0.0015 | 0.00171 | 0.00211 | 0.00261
in methanol | 0.00414 | 0.00553 | 0.00609 | 0.00758 | 0.00892 | 0.0101 | 0.0121 | 0.0155 | 0.0166
in n-propanol | 0.00038 | 0.00043 | 0.00062 | 0.00088 | 0.00127 | 0.00164 | 0.002 | 0.00238 | 0.00272
in water | 0.0976 | 0.106 | 0.116 | 0.124 | 0.135 | 0.146 | 0.155 | 0.166 | 0.175
